Measurements reported in ChEMBL document CHEMBL1156052, “Discovery of 1-[4-(3-chlorophenylamino)-1-methyl-1H-pyrrolo[3,2-c]pyridin-7-yl]-1-morpholin-4-ylmethanone (GSK554418A), a brain penetrant 5-azaindole CB2 agonist for the treatment of chronic pain” (J Med Chem, 2009).
Converted amounts (≈) assume the structure as drawn. The source made the active and inactive calls. The calls are words filed in the database; no cut-off is given here.

Columns and labels:
Cannabinoid receptor 1 [1] = molecular target: T1, Cannabinoid receptor 1 (Homo sapiens, UniProt P21554); assay: Agonist activity at human recombinant cannabinoid CB1 receptor expressed in MMY23 Saccharomyces cerevisiae assessed as degradation of FDGlu to fluorescein at 30 uM after 24 hrs by spectrofluorimetry; assay type: functional
T1 sequence (P21554 whole entry): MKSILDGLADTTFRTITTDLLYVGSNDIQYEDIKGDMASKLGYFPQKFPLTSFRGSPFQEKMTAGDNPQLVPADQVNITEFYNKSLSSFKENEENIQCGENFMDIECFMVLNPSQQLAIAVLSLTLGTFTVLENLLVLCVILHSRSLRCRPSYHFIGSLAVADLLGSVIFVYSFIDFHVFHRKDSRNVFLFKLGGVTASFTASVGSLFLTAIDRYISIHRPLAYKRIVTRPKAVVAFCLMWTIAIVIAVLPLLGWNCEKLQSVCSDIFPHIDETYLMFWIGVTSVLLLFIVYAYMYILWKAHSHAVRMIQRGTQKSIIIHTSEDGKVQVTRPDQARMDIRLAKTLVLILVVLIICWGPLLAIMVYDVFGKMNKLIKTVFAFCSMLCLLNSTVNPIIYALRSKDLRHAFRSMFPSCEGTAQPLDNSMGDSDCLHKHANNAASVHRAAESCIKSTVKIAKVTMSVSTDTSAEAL

Cannabinoid receptor 2 [2] = molecular target: T2, Cannabinoid receptor 2 (Homo sapiens, UniProt P34972); assay: Agonist activity at human recombinant cannabinoid CB2 receptor expressed in MMY23 Saccharomyces cerevisiae assessed as degradation of FDGlu to fluorescein after 24 hrs by spectrofluorimetry; assay type: functional
T2 sequence (P34972 whole entry): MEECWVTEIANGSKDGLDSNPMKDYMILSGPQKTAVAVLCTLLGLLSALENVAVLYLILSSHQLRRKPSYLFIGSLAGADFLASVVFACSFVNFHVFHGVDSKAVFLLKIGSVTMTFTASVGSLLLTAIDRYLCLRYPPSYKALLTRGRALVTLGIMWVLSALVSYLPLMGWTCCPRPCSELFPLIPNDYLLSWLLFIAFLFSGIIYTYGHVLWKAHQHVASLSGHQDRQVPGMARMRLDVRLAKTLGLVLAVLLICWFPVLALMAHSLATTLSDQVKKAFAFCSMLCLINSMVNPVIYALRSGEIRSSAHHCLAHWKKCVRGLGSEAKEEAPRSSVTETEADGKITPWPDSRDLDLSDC

Cannabinoid receptor 1 [3] = molecular target: T1, Cannabinoid receptor 1; assay: Agonist activity at human recombinant cannabinoid CB1 receptor expressed in MMY23 Saccharomyces cerevisiae assessed as degradation of FDGlu to fluorescein after 24 hrs by spectrofluorimetry; assay type: functional
Homo sapiens = organism: Homo sapiens; assay: Selectivity ratio of EC50 for human recombinant cannabinoid CB1 receptor to EC50 for human recombinant cannabinoid CB2 receptor
Cannabinoid receptor 2 [4] = molecular target: T2, Cannabinoid receptor 2; assay: Agonist activity at human recombinant cannabinoid CB2 receptor expressed in MMY23 Saccharomyces cerevisiae assessed as degradation of FDGlu to fluorescein after 24 hrs by spectrofluorimetry relative to HU210; assay type: functional
Cannabinoid receptor 1 [5] = molecular target: T1, Cannabinoid receptor 1; assay: Agonist activity at human recombinant cannabinoid CB1 receptor expressed in MMY23 Saccharomyces cerevisiae assessed as degradation of FDGlu to fluorescein after 24 hrs by spectrofluorimetry relative to HU210; assay type: functional
[6] = Efflux ratio of apparent permeability […] side of MDR1-expressing MDCK2 cells after 60 mins by liquid scintillation counting; assay type: ADME, cell-based, Canis lupus familiaris; details: dog, mdck-ii, 1 h
Rattus norvegicus [7] = assay: Analgesic activity in rat joint model of chronic pain at 5 mg/kg, po BID for 5 days; assay type: functional, organism-based; parameters: dose 5 mg/kg
[8] = Intrinsic clearance in rat liver microsomes; assay type: ADME, Microsome
Cytochrome P450 2C19 = Cytochrome P450 2C19 (Homo sapiens, UniProt P33261); assay: Inhibition of CYP2C19; assay type: ADME
Chain of Cytochrome P450 2C19 (P33261 whole entry): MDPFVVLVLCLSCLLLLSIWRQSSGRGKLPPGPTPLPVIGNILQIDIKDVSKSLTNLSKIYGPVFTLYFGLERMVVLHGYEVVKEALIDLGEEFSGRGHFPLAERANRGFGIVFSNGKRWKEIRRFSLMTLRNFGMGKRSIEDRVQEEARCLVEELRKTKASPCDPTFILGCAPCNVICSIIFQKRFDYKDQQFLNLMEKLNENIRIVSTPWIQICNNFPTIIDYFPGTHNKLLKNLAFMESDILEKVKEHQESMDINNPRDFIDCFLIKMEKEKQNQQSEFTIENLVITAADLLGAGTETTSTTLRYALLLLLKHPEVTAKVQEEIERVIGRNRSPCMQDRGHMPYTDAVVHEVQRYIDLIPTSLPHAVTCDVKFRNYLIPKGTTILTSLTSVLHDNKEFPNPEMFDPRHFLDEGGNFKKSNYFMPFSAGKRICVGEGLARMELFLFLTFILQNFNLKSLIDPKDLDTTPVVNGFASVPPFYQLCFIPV

[9] = Ratio of drug level in brain to blood in mouse; assay type: ADME, tissue-based
Rattus norvegicus [10] = assay: Antihyperalgesic activity in po dosed complete Freund's adjuvant rat model of inflammatory pain assessed as reduction of hypersensitivity administered as single dose; assay type: functional
Cytochrome P450 3A4 = Cytochrome P450 3A4 (Homo sapiens, UniProt P08684); assay: Inhibition of CYP3A4; assay type: ADME
Chain of Cytochrome P450 3A4 (P08684 whole entry): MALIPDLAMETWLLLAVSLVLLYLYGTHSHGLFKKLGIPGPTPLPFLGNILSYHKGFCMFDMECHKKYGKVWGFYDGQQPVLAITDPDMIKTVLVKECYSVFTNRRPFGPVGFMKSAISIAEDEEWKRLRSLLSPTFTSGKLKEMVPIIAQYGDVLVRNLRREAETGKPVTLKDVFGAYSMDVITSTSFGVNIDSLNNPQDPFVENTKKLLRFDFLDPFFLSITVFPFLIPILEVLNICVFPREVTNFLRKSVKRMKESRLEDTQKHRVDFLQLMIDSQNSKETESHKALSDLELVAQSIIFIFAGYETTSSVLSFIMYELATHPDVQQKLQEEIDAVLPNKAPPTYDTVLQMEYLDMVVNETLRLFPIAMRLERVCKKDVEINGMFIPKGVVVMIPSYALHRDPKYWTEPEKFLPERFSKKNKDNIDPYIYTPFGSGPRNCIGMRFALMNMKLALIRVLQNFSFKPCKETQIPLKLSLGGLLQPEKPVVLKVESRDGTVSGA

Rattus norvegicus [11] = assay: Analgesic activity in rat joint model of chronic pain at 1 to 10 mg/kg, po BID for 5 days; assay type: functional, organism-based
[12] = Solubility in simulated intestinal fluid at pH 5; assay type: physicochemical
Cytochrome P450 2D6 = Cytochrome P450 2D6 (Homo sapiens, UniProt P10635); assay: Inhibition of CYP2D6; assay type: ADME
Chain of Cytochrome P450 2D6 (P10635 whole entry): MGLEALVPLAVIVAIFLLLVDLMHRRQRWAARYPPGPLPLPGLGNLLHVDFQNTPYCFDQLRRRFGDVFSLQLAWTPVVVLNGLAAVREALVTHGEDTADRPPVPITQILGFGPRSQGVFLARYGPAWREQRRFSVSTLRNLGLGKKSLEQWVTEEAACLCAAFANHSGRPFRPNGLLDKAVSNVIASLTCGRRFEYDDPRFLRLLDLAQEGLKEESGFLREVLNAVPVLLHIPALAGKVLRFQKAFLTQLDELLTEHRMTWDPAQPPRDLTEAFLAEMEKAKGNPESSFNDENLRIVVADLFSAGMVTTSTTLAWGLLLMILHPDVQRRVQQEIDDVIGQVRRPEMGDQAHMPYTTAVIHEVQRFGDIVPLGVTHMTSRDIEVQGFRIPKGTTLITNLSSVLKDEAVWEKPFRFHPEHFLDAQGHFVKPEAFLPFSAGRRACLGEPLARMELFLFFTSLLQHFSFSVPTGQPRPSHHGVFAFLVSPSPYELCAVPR

[13] = Intrinsic clearance in human liver microsomes; assay type: ADME, Microsome
[14] = Dissociation constant, pKa of the compound; assay type: physicochemical
Cytochrome P450 2C9 = Cytochrome P450 2C9 (Homo sapiens, UniProt P11712); assay: Inhibition of CYP2C9; assay type: ADME
Chain of Cytochrome P450 2C9 (P11712 whole entry): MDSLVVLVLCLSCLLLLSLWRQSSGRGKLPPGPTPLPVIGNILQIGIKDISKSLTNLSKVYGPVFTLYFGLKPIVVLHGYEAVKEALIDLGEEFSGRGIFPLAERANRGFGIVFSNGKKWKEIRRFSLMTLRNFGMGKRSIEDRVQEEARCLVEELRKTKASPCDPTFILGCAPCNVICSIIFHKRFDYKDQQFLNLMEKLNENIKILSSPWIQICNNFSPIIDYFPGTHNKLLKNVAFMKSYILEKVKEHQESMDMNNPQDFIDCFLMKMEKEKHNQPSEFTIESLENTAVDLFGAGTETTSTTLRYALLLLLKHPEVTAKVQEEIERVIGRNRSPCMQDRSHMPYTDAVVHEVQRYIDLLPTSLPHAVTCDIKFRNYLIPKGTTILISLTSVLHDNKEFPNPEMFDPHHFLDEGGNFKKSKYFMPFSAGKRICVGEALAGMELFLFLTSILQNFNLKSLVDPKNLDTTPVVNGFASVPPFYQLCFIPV

Cytochrome P450 1A2 = Cytochrome P450 1A2 (Homo sapiens, UniProt P05177); assay: Inhibition of CYP1A2; assay type: ADME
Chain of Cytochrome P450 1A2 (P05177 whole entry): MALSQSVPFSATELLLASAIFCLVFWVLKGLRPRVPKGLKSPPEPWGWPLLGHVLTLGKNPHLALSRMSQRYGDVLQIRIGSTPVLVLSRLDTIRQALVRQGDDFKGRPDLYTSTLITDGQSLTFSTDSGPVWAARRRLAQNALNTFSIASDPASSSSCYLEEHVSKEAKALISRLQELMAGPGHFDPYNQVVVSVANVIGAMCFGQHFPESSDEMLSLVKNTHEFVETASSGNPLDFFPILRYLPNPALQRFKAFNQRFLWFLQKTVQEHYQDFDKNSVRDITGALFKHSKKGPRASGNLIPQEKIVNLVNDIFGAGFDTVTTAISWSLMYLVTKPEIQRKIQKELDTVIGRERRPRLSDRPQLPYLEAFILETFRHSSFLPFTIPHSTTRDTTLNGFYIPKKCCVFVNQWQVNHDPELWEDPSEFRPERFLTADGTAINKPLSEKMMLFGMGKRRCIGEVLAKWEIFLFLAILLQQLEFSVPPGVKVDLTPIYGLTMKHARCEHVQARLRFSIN

Structure (SMILES)	EC50 (Cannabinoid receptor 2 [2]) [µM]	EC50 (Cannabinoid receptor 1 [3]) [µM]	Ratio EC50 (Homo sapiens)	Efficacy (Cannabinoid receptor 2 [4]) [%]	Efficacy (Cannabinoid receptor 1 [5]) [%]	further results
Cc1c[nH]c2c(Nc3ccccc3OC(C)C)ncc(C(=O)N3CCOCC3)c12	0.188	> 30	> 100	73		Activity (Cannabinoid receptor 1 [1]): inactive
COc1ccccc1Nc1ncc(C(=O)N2CCOCC2)c2c(C)c[nH]c12	0.349	> 10	> 100	72		Activity (Cannabinoid receptor 1 [1]): inactive
Cc1c[nH]c2c(Nc3cccc(Cl)c3)ncc(C(=O)N3CCCCCC3)c12	0.107	> 30		76		
Cc1c[nH]c2c(Nc3cccc(C(F)(F)F)c3)ncc(C(=O)N3CCOCC3)c12	0.015	> 30	> 100	86		Activity (Cannabinoid receptor 1 [1]): inactive
Cc1c[nH]c2c(Nc3cccc(Br)c3)ncc(C(=O)N3CCOCC3)c12	0.01	6.3		78	43	
Cc1c[nH]c2c(Nc3cccc(Cl)c3)ncc(C(=O)NCc3ccc(F)cc3)c12	0.145	> 30		58		
Cc1cn(C)c2c(Nc3cccc(Cl)c3)ncc(C(=O)N3CCOCC3)c12	0.654	10		47	45	
CS(=O)(=O)c1ccc(C2=C(c3ccccc3)C(=O)OC2)cc1 [ROFECOXIB]						Ratio [6]: 74; Activity (Rattus norvegicus [7]): Active
Cc1c[nH]c2c(NC3CCOCC3)ncc(C(=O)N3CCOCC3)c12	3.3	> 30		84		
Cc1c[nH]c2c(Nc3cccc(Cl)c3)ncc(C(=O)N3CCOCC3)c12	0.011	10	1000	82	74	CLint scaled [8]: 0.084 L/h/kg; Ratio [6]: 74; IC50 (Cytochrome P450 2C19): 29 µM; Kp [9]: < 0.05; ED50 (Rattus norvegicus [10]): 0.12 mg/kg; IC50 (Cytochrome P450 3A4): 48 µM; Activity (Rattus norvegicus [11]): inactive; solubility [12]: 0.16 mg/mL (≈ 431 µM); IC50 (Cytochrome P450 2D6): 14 µM; CLint scaled [13]: 0.096 L/h/kg; pKa [14]: 5.8; IC50 (Cytochrome P450 2C9): 4.7 µM; IC50 (Cytochrome P450 1A2): 28 µM
Cc1c[nH]c2c(Nc3cccc(Cl)c3)ncc(C(=O)N3CCCCC3)c12	0.014	4		73	32	
